Measured values as given in US4508663A, “Process for preparing thiosulfenamide derivatives of N-phosphonomethylglycinonitriles” (Monsanto Company, priority 1983, dated 1985).

Key:
Experiment in all cases: post-emergence herbicidal activity, greenhouse
Assay type in all cases: in vivo
Crabgrass = settings: Table II
Text: (§1) A good grade of top soil is placed in aluminum pans having holes in the bottom and compacted to a depth of 0.95 to 1.27 cm. from the top of the pan. A predetermined number of seeds of each of several dicotyledonous and monocotyledonous annual plant species and/or vegetative propagules for the perennial plant species are placed on the soil and pressed into the soil surface. The seeds and/or vegetative propagules are covered with soil and leveled. The pans are then placed on a sand bench in the greenhouse and watered from below as needed. After the plants reach the desired age (two to three weeks), each pan except for the control pans is removed individually to a spraying chamber and sprayed by means of an atomizer operating at a positive air pressure of approximately 1.46 kg/cm^2 absolute. The atomizer contains 6 ml. of a solution or suspension of the chemical. In that 6 ml., is an amount of a cyclohexanone emulsifying agent mixture to give a spray solution or suspension which contains about 0.4% by weight of the emulsifier. The spray solution or suspension contains a sufficient amount of the candidate chemical in order to give application rates corresponding to those set forth in the tables. The spray solution is prepared by taking an aliquot of a 1.0% by weight stock solution or suspension of the candidate chemical in an organic solvent such as acetone or tetrahydrofuran or in water. The emulsifying agent employed is a mixture comprising 35 weight percent butylamine dodecylbenzene sulfonate and 65 weight percent of a tall oil ethylene oxide condensate having about 11 moles of ethylene oxide per mole of tall oil. The pans are returned to the greenhouse and watered as before and the injury to the plants as compared to the control is observed at approximately two and four weeks as indicated in the tables under WAT and the results recorded. In some instances, the two-week observations are omitted.
(§2) The post-emergence herbicidal activity index used in Table I is as follows: […]

Rice = settings: Table II
Text: as §1, §2

Panicum Spp = settings: Table II
Text: as §1, §2

Wheat = settings: Table II
Text: as §1, §2

Quackgrass = settings: Table I, 4 WAT
Text: as §1, §2

Wild Buckwheat = settings: Table II
Text: as §1, §2

Velvetleaf = tested on: Velvetleaf
Text: as §1, §2

Yellow Nutsedge = settings: Table I, 4 WAT
Text: as §1, §2

Smartweed = tested on: Smartweed
Text: as §1, §2

Johnsongrass = settings: Table I, 4 WAT
Text: as §1, §2

Hemp Sesbania = settings: Table II
Text: as §1, §2

Lambsquarters = tested on: Lambsquarters
Text: as §1, §2

Cocklebur = tested on: Cocklebur
Text: as §1, §2

Sorghum = settings: Table II
Text: as §1, §2

Morningglory = tested on: Morningglory
Text: as §1, §2

Sugar Beet = settings: Table II
Text: as §1, §2

Soybean = settings: Table II
Text: as §1, §2

Barnyardgrass = tested on: Barnyardgrass
Text: as §1, §2

Downy Brome = tested on: Downy Brome
Text: as §1, §2

Measured: post-emergence herbicidal activity index

N#CCN(CP(=O)(Oc1ccccc1)Oc1ccccc1)SSCCc1ccccc1 [XII, Phosphonic acid, [[(cyanomethyl)[(2-phenylethyl)dithio]amino]methyl]-, diphenyl ester]
3 (75-99% control): Crabgrass; 4 WAT, 5.6 kg/h | Quackgrass; 11.2 kg/h | Smartweed; Table I, 4 WAT, 11.2 kg/h | Lambsquarters; Table II, 4 WAT, 5.6 kg/h | Sorghum; 4 WAT, 5.6 kg/h | Downy Brome; Table I, 4 WAT, 11.2 kg/h
4 (100% control): Johnsongrass; 11.2 kg/h | Lambsquarters; Table I, 4 WAT, 5.6 kg/h | Lambsquarters; Table I, 4 WAT, 11.2 kg/h | Cocklebur; Table I, 4 WAT, 11.2 kg/h
0 (0-24% control): Crabgrass; 2 WAT, 0.28 kg/h | Crabgrass; 4 WAT, 1.12 kg/h | Rice; 2 WAT, 0.28 kg/h | Rice; 4 WAT, 1.12 kg/h | Rice; 4 WAT, 5.6 kg/h | Panicum Spp; 2 WAT, 0.28 kg/h | Panicum Spp; 4 WAT, 1.12 kg/h | Wheat; 2 WAT, 0.28 kg/h | Wheat; 4 WAT, 1.12 kg/h | Quackgrass; 5.6 kg/h | Wild Buckwheat; 2 WAT, 0.28 kg/h | Wild Buckwheat; 4 WAT, 1.12 kg/h | Velvetleaf; Table I, 4 WAT, 5.6 kg/h | Velvetleaf; Table II, 2 WAT, 0.28 kg/h | Velvetleaf; Table II, 4 WAT, 1.12 kg/h | Smartweed; Table I, 4 WAT, 5.6 kg/h | Smartweed; Table II, 2 WAT, 0.28 kg/h | Smartweed; Table II, 4 WAT, 1.12 kg/h | Hemp Sesbania; 2 WAT, 0.28 kg/h | Hemp Sesbania; 4 WAT, 1.12 kg/h | Lambsquarters; Table II, 2 WAT, 0.28 kg/h | Lambsquarters; Table II, 4 WAT, 1.12 kg/h | Cocklebur; Table II, 2 WAT, 0.28 kg/h | Cocklebur; Table II, 4 WAT, 1.12 kg/h | Sorghum; 2 WAT, 0.28 kg/h | Morningglory; Table II, 2 WAT, 0.28 kg/h | Morningglory; Table II, 4 WAT, 1.12 kg/h | Sugar Beet; 2 WAT, 0.28 kg/h | Sugar Beet; 4 WAT, 1.12 kg/h | Soybean; 2 WAT, 0.28 kg/h | Soybean; 4 WAT, 1.12 kg/h | Barnyardgrass; Table II, 2 WAT, 0.28 kg/h | Barnyardgrass; Table II, 4 WAT, 1.12 kg/h | Downy Brome; Table I, 4 WAT, 5.6 kg/h | Downy Brome; Table II, 2 WAT, 0.28 kg/h | Downy Brome; Table II, 4 WAT, 1.12 kg/h
2 (50-74% control): Wild Buckwheat; 4 WAT, 5.6 kg/h | Velvetleaf; Table I, 4 WAT, 11.2 kg/h | Velvetleaf; Table II, 4 WAT, 5.6 kg/h | Yellow Nutsedge; 5.6 kg/h | Yellow Nutsedge; 11.2 kg/h | Smartweed; Table II, 4 WAT, 5.6 kg/h | Cocklebur; Table I, 4 WAT, 5.6 kg/h | Cocklebur; Table II, 4 WAT, 5.6 kg/h | Barnyardgrass; Table I, 4 WAT, 5.6 kg/h | Barnyardgrass; Table I, 4 WAT, 11.2 kg/h | Barnyardgrass; Table II, 4 WAT, 5.6 kg/h | Downy Brome; Table II, 4 WAT, 5.6 kg/h
1 (25-49% control): Panicum Spp; 4 WAT, 5.6 kg/h | Wheat; 4 WAT, 5.6 kg/h | Johnsongrass; 5.6 kg/h | Hemp Sesbania; 4 WAT, 5.6 kg/h | Sorghum; 4 WAT, 1.12 kg/h | Morningglory; Table I, 4 WAT, 5.6 kg/h | Morningglory; Table I, 4 WAT, 11.2 kg/h | Morningglory; Table II, 4 WAT, 5.6 kg/h | Sugar Beet; 4 WAT, 5.6 kg/h | Soybean; 4 WAT, 5.6 kg/h
